# Laboratory results from patent publication US20050288270A1, “New aminopyridine derivatives and their use as pharmaceuticals” (Pfizer Inc, priority 2004, published 2005).
# Columns and labels:
# dopamine D3 receptor = dopamine D3 receptor (Homo sapiens, UniProt P35462); assay: D3/D2 agonist assay, functional potency at D3 receptor; assay type: cell-based
# Description: (§1) Activity at the dopamine D3 receptor may be determined using the methods described in WO 2004/052372. […] Selectivity is calculated as the D2 EC50 value divided by the D3 EC50 value. Where the value of the D2 EC50 was >10000, a figure of 10000 was used in the calculation.
# D2 receptor = D2 receptor (Homo sapiens, UniProt P14416); assay: D3/D2 agonist assay, functional response at D2 receptor; assay type: cell-based; conditions: at 1000 nM; relative to the maximal effect of pramipexole
# D2 receptor, sequence (P14416 whole entry): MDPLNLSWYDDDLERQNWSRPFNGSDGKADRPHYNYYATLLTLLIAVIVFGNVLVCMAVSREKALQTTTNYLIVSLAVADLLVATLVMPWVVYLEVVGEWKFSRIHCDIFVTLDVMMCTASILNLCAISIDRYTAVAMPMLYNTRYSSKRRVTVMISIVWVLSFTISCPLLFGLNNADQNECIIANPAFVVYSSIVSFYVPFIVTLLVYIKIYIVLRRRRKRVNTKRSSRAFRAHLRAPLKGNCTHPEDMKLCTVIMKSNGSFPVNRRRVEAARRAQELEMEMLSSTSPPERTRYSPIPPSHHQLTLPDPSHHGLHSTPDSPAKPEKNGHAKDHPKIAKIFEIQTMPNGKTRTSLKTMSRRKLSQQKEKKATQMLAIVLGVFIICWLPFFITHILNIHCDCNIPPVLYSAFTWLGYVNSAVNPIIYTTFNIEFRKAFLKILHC
# Description: as §1
# dopamine D3 receptor, sequence (P35462 whole entry): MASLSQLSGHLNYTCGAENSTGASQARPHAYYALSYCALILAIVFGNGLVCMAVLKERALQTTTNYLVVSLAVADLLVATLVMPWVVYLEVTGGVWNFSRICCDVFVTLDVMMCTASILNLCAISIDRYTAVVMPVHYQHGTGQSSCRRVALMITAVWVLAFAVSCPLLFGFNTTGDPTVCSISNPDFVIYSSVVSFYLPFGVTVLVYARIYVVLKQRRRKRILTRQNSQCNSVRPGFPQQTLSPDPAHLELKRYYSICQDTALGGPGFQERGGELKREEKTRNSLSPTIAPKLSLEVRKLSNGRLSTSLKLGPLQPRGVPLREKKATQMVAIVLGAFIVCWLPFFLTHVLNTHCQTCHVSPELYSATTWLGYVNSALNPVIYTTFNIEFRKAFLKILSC
compound,measurement,setting,value
"CCCN1CC(c2ccc(N)nc2)OCC1CO (single isomer, unassigned) [Example 14, [6-(6-Aminopyridin-3-yl)-4-propylmorpholin-3-yl]methanol]",EC50,"dopamine D3 receptor; agonist, read-out: functional potency at the D3 receptor, expressed as an EC50",20 nM
same,Emax,"dopamine D3 receptor; relative to the maximal effect of standard agent pramipexole, read-out: Emax (maximal response value)",98%
same,response against the D2 receptor,D2 receptor,22%
